Measured values taken from paper PMC12707362, “Targeting Aurora Kinases as Essential Cell‐Cycle Regulators to Deliver Multi‐Stage Antimalarials Against Plasmodium Falciparum” (Angewandte Chemie (International Ed. in English), 2025).
Where a name gives a salt, the structure may show the parent alone. Read-outs that look alike come from different tables or passages of the source. One block for each molecule: values may come before it.

Legend:
[1] = test system: P. falciparum drug-sensitive NF54 (PfNF54) asexual intra-erythrocytic parasites; assay: SYBR Green I proliferation assay, PfNF54 asexual blood stages; assay type: cell-based, Plasmodium falciparum; settings: read-out: Pf NF54 ABS IC50
Description: Figure 1 Activity profile of Aur class anticancer inhibitors across the life cycle of Plasmodium falciparum parasites. a) Activity (IC50) of inhibitors (grouped based on specificity against human Aur) against P.falciparum drug‐sensitive (PfNF54) asexual intra‐erythrocytic parasites as measured with SYBR Green I fluorescence as an indicator of viability and proliferation. […] ABS, asexual blood stages of the parasite; HsAur, human Aur.
P. falciparum drug sensitive NF54 (PfNF54) and drug-resistant Dd2 (PfDd2, chloroquine, pyrimethamine and mefloquine resistant) strains were cultured in vitro in human O^+/A^+ erythrocytes (5% hematocrit) in complete medium at 2–5% parasitemia, 37 °C, shaking at 60 rpm under hypoxic conditions (90% N2, 5% O2 and 5% CO2). […] Gametocytogenesis was followed with daily media changes (including glucose) and ABS parasites removed with 50 mM N-acetylglucosamine (day 1–4 for stage II/III; days 3–7 for stage IV/V).
All inhibitors were dissolved in dimethyl sulfoxide (DMSO). […] Ring-stage ABS parasites (1% parasitemia, 1% hematocrit) were treated with compounds for 96 h at 37 °C with chloroquine disulphate (0.5 μM) as positive drug control. […] Luciferase activity was determined using a non-lysing D-luciferin substrate (1 mM in 0.1 M citrate buffer, pH 5.5, 100 μL) and bioluminescence was detected with a GloMax® - Multi Detection System with Instinct® software.

[2] = test system: P. berghei liver schizonts in HepG2-A16-CD81EGFP cells; assay: P. berghei (PbLuc) liver stage assay; assay type: cell-based; settings: Plasmodium berghei; 48 h, PbLuc; read-out: Pb liver stage IC50
Description: (§1) (B) Antiplasmodial activity of nine anticancer aurora kinase inhibitors (selected based on their PfNF54 ABS activity) against P. falciparum multidrug-resistant ABS parasites (PfDd2 and PfK1). (C) Kinobead competitive inhibition data.
Plasmodium berghei (Pb) sporozoites were obtained by dissecting the salivary glands of infected Anopheles stephensi mosquitoes. These were provided by The SporoCore, at the University of Georgia, GA, USA (SporoCore.uga.edu). The parasites utilised a GFP-Lucama1-eef1 reporter line^[5]. These engineered parasites, termed Pb-Luc, were used to infect HepG2-A16-CD81EGFP cells. HepG2-A16-CD81EGFP cells stably transformed to express a GFP-CD81 fusion protein^[6] were cultured at 37 °C in 5% CO2 in DMEM (Invitrogen, Carlsbad, USA) supplemented with 10% FBS (Corning, NY, USA), 1X Pen/Strep/Glu (Thermo Fisher Scientific, USA). Compounds were prepared as 10 mM solutions in DMSO, and 10 nL of each (resulting in a final DMSO concentration of 0.1% per well) was transferred into assay plates using an ECHO 650 (Beckman). Concentrations ranged from 10 µM to 0.5 nM. Atovaquone (0.1 µM) served as a positive control, while 0.1% DMSO was used as a negative control. Liver stage (PbLuc) screening has been previously described^[7]. Human hepatic cells (3 × 10^3; HepG2-A16-CD81-EGFP) suspended in 5 µL of DMEM medium ([…], supplemented with 5% FBS, 5× Pen/Strep/Glu) were seeded in 1536-well plates (Greiner BioOne) using the MultiFlo FX (Agilent) 20 h before infection. PbLuc sporozoites, isolated from the salivary glands of A. stephensi mosquitoes, were filtered twice through a 20 µm nylon pore cell strainer. The sporozoites were resuspended in screening media, counted with a hemocytometer, and diluted to a final concentration of 200 sporozoites per µL. Each well received 1,000 sporozoites in 5 µL, dispensed via the GNF Dispenser II (GNF Systems). […] Luminescence was measured immediately with the Pherastar FSX reader (BMG Labtech). Luminescence values were normalized using the positive and negative controls. EC50 values were calculated with CDD Vault (Burlingame, CA). […]

[3] = test system: Chinese Hamster Ovary (CHO) cells; assay: Cytotoxicity counter-screening (MTT), CHO; settings: CHO CC50/PfNF54 IC50
Protocol: (§2) HepG2 and CHO cells were maintained at 37 °C, under a humidified atmosphere of 5% CO2, in DMEM high glucose media (Gibco) supplemented with 10% heat-inactivated FBS and 1% (v/v) Penicillin-Streptomycin antibiotics. […] The supernatant was discarded, and the cell pellet was resuspended in 1 mL DMEM media for cell counting by Trypan Blue. To determine the toxicity, cells were resuspended and seeded at a concentration of 1x10^4 cells/well in a 96-well plate and incubated for 24 h^[9,10]. Cells were treated in duplicate with a 10-fold serial dilution starting at 100 ug/mL of inhibitor in new media. After 48 h incubation, the viable cells were measured using the MTT tetrazolium reduction assay, where sterile 25 µL of a 5 mg/mL MTT was added to each well and incubated for 4 h before the […] formazan crystals were dissolved with 100 µL DMSO (Merck) per well. The absorbance, a measure of intracellular reduction of MTT, was measured at 540 nm (Multiskan GO). Emetine (50 µM) was included as a positive drug control, and the background was subtracted from all data before being normalised to the untreated^[9,10].

[4] = Cytotoxicity counter-screening (MTT), CHO; settings: Chinese hamster, CHO cells
Protocol: as §2

[5] = test system: multidrug-resistant PfDd2 ABS parasites; assay: SYBR Green I proliferation assay, PfDd2 asexual blood stages; assay type: cell-based; settings: Plasmodium falciparum, DD2, read-out: Pf Dd2 ABS IC50
Protocol: as §1
(§3) P. falciparum drug sensitive NF54 (PfNF54) and drug-resistant Dd2 (PfDd2, chloroquine, pyrimethamine and mefloquine resistant) strains were cultured in vitro in human O^+/A^+ erythrocytes (5% hematocrit) in complete medium at 2–5% parasitemia, 37 °C, shaking at 60 rpm under hypoxic conditions (90% N2, 5% O2 and 5% CO2). Immature and mature gametocytes were produced from P. falciparum 3D7elo1-pfs16-CBG99 (kind gift from Pietro Alano, ISS, Italy) ^[1] as described^[2,3] by simultaneously applying nutrient starvation and decreasing hematocrit to induce >97% ring-stage ABS parasites (0.5% parasitemia, 6% hematocrit). Gametocytogenesis was followed with daily media changes (including glucose) and ABS parasites removed with 50 mM N-acetylglucosamine (day 1–4 for stage II/III; days 3–7 for stage IV/V).
(§4) All inhibitors were dissolved in dimethyl sulfoxide (DMSO). Antiplasmodium activity of selected anti-cancer inhibitors was determined on P. falciparum NF54 and Dd2 strains, measuring SYBR Green I fluorescence (485 nm excitation, 538 nm emission) as an indicator of proliferation^[4]. Ring-stage ABS parasites (1% parasitemia, 1% hematocrit) were treated with compounds for 96 h at 37 °C with chloroquine disulphate (0.5 μM) as positive drug control. The activity of the inhibitors was tested against immature (>95% stage II/III) and late-stage (>90% stage IV/V) gametocytes using a luciferase reporter assay on 3D7elo1-pfs16-CBG99 ^[1]. […] Luciferase activity was determined using a non-lysing D-luciferin substrate (1 mM in 0.1 M citrate buffer, pH 5.5, 100 μL) and bioluminescence was detected with a GloMax® - Multi Detection System with Instinct® software.

[6] = test system: immature (stage II/III) gametocytes, P. falciparum 3D7elo1-pfs16-CBG99; assay: Luciferase reporter assay, immature gametocytes; assay type: cell-based, Plasmodium falciparum; settings: 48 h; for inhibition at 5 µM: Plasmodium falciparum, read-out: Pf Early stage gametocyte %inhibition @ 5 µM
Protocol: as §3, §4

[7] = test system: late-stage (stage IV/V) gametocytes, P. falciparum 3D7elo1-pfs16-CBG99; assay: Luciferase reporter assay, late-stage gametocytes; assay type: cell-based; settings: Plasmodium falciparum, 48 h, read-out: Pf Late stage gametocyte %inhibition @ 5 µM
Protocol: as §3, §4

[8] = Cytotoxicity counter-screening (MTT), HepG2; settings: human, HepG2 cells, HepG2 CC50, 48 h, MTT
Protocol: as §2

[9] = test system: hepatocellular carcinoma (HepG2) cells; assay: Cytotoxicity counter-screening (MTT), HepG2; settings: HepG2 CC50/PfNF54 IC50
Protocol: as §2

[10] = test system: HepG2 and CHO cell lines versus PfNF54; assay: Selectivity of parasite versus mammalian cell lines; assay type: cell-based; settings: mammalian cell line (CHO/HepG2) CC50 versus PfNF54 IC50; cell line not specified
[11] = Plasmodium falciparum, NF54, 96 h, ring-stage ABS, 96 h, SYBR Green I
[12] = ring-stage ABS, 96 h, SYBR Green I

IC50 [1, 11]: ≥ 5 µM
Compound: Cc1csc(-c2nnc(Nc3ccc(Oc4ncccc4-c4ccnc(N)n4)cc3)c3ccccc23)c1 [AMG 900]

IC50 [1, 12]: 2.15 µM
Compound: COc1cc2ncnc(Nc3ccc(NC(=O)c4ccccc4)cc3)c2cc1OC [Aki II, Aurora Kinase Inhibitor II]

IC50 [1, 11]: ≥ 5 µM
Compound: COc1cc(Nc2ncc3c(n2)-c2ccc(Cl)cc2C(c2c(F)cccc2OC)=NC3)ccc1C(=O)O [Alisertib, Alisertib (MLN8237)]

IC50 [1, 12]: 2.41 µM
Compound: CN(C)c1ccc(-c2nc3ncc(Cl)c(N4CCN(CC(=O)Nc5nccs5)CC4)c3[nH]2)cc1 [CCT-202, CCT-129202]

IC50 [1, 12]: 1.66 µM
Compound: Cc1cc(CN2CCN(c3c(Br)cnc4nc(-c5ccc(N6CCN(C)CC6)cc5)[nH]c34)CC2)no1 [CCT-690, CCT-137690]

IC50 [1, 11]: 3.24 µM
Compound: Cc1nn(C)cc1-c1nc2c(N3CCN(Cc4ccc(Cl)cc4)CC3)c(Cl)cnc2[nH]1 [CCT-736, CCT-241736]

IC50 [1, 11]: 3.09 µM
Compound: Cc1nc(N)sc1-c1ccnc(Nc2ccc(N3CCOCC3)cc2)n1 [CYC-116]

Compound: CO[C@@H](C(=O)N1Cc2n[nH]c(NC(=O)c3ccc(N4CCN(C)CC4)cc3)c2C1)c1ccccc1 [Danusertib]
IC50 [2]: 6.22 µM
Selectivity index (SI) CHO [3]: 23.50
CC50 at 48 h [4]: 33.2 µM
IC50 [5]: 1.3 µM
inhibition at 5 µM [6]: 9.5%
inhibition at 5 µM [7]: 2.6%
CC50 at 48 h [8]: 35.1 µM
Selectivity index (SI) HepG2 [9]: 24.8
IC50 [1, 11]: 1.41 µM

Compound: CCn1cc(-c2ccnc3[nH]c(-c4cccc(CN(C)C)c4)cc23)c(-c2ccc(NC(=O)N(C)C)cc2)n1 [GSK-916, GSK-1070916]
Selectivity index (SI) CHO [3]: 4.47
CC50 at 48 h [4]: 5.3 µM
IC50 [5]: 0.404 µM
Pf Early stage gametocyte %inhibition @ 5 µM [6]: 67,1 ± 7,0%
inhibition at 5 µM [6]: ~70%
inhibition at 5 µM [7]: 31.5%
CC50 at 48 h [8]: 13.1 µM
Selectivity index (SI) HepG2 [9]: 11.03
IC50 [1, 11]: 1.18 µM
selectivity index (SI) towards the parasite [10]: < 10

IC50 [1, 11]: 3.31 ± 0.813 µM
Compound: Nc1nc(Nc2ccc(S(N)(=O)=O)cc2)nn1C(=O)c1c(F)cccc1F [JNJ, JNJ-7706621]

Compound: O=C(O)[C@]1(Cc2cccc(Nc3nccs3)n2)CC[C@@H](Oc2cccc(Cl)c2F)CC1 [MK-5108]
IC50 ([1]; Plasmodium falciparum, NF54, 96 h): ≥ 5 µM

IC50 [1, 11]: ≥ 5 µM
Compound: O=C(O)c1ccc(Nc2ncc3c(n2)-c2ccc(Cl)cc2C(c2c(F)cccc2F)=NC3)cc1 [MLN8054]

IC50 [1, 12]: 2.12 ± 1.56 µM
Compound: CC(=O)NCC(=O)N1[C@@H]2CC[C@H]1c1ccc(Nc3ncc(C(F)(F)F)c(NC4CCC4)n3)cc12 [PF-35, PF-03814735]

Compound: Cc1cc(Nc2nn(-c3ccccc3)c(=O)c3ccccc23)n[nH]1 [PH-p, Phthalazinone pyrazole]
IC50 [1, 12]: 2.72 µM

IC50 [1, 11]: 3.13 µM
Compound: CCc1cccc(CC)c1NC(=O)N1Cc2n[nH]c(NC(=O)c3ccc(N4CCN(C)CC4)cc3)c2C1 [PHA-32, PHA-680632]

IC50 [1, 11]: 1.44 µM
Compound: O=C(Nc1cccc(Cl)c1)Nc1ncc(CCNc2ncnc3ccsc23)s1 [SNS-314, SNS-314 Mesylate]
